This test concerns CEM cells HIV-1 protection, formazan growth assay. Briefly: NCI AIDS Antiviral Assay. Particulars: for IC50: measured here: growth of uninfected CEM cells. Put shortly: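 Five concentrations of each compound were applied to infected and uninfected human CEM cells. Protection from HIV-1 was judged from growth measured with a soluble formazan assay.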

Each structure is given as a SMILES string. The source made the active and inactive calls.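 Rule for the calls: active = compounds giving half or more protection of infected cells from virus-caused growth loss, again on retest; inactive = the rest.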 Where a SMILES comes first, the peptide text is derived from it. [ ]: non-standard residue; d: D form. The star is where a group is joined. ξ: configuration not given here. ξD = NC(CC(=O)O)C(=O)O; Boc = CC(C)(C)OC(=O)*; Aib = CC(C)(N)C(=O)O; OBn = c1ccc(CO*)cc1 A value given as a limit tells only on which side of the number the result lay.

One may read the EC50 as the concentration needed to bring the measured effect to its halfway point. Broadly, the IC50 is the point on the concentration scale where inhibition reaches its midpoint.

With `COc1ccc(/C(C)=N/NC(=O)c2ccncc2)cc1OC`, the EC50 is over 437 µM and the IC50 is over 437 µM.

In the case of `O=C(NNC(=S)NC1CCCCC1)c1csc(NC(=S)NC2CCCCC2)n1`, the EC50 is over 20 µM and the IC50 was 1.86 µM. For `CC(C)(C)OC(=O)NC(CC(=O)OCc1ccccc1)C(=O)NC(C)(C)C(N)=O` (stereo not drawn) (Boc-[ξD](OBn)-[Aib]-NH2) the same measures were over 200 µM and over 200 µM. For `NC(=O)c1cccc(OCC(O)CO)c1` (stereo not drawn), in that order: over 200 µM and over 200 µM. For `O=C(Cc1ccccc1)NN1C(=O)/C(=C\c2ccccc2)SC1=Nc1ccccc1` the same measures were over 120 µM and over 120 µM.

For the compound `COC(=O)c1ccc(NCc2c(O)ccc(O)c2Br)cc1Cl`, the EC50 was over 14.8 µM and the IC50 came to 6.46 µM. On to `CC(=O)/C(=C/c1ccc(N(C)C)cc1)C(=O)c1ccccc1`, for which the EC50 was over 6.76 µM and the half-inhibitory concentration (IC50) is over 6.76 µM. Turning to `Cc1nc2c(=S)n(C)ncc2[nH]1`, the EC50 is 30.9 µM and the half-maximal inhibitory concentration (IC50) was over 100 µM. For `C(=Nc1cccnc1)c1ccc2ccccc2n1` the same measures were over 81.3 µM and 44.7 µM.

On to `O=c1/c(=C/c2cccc([N+](=O)[O-])c2)sc2nc3ccccc3n12`, for which the outcome was inactive. Compound `Nc1ccc2cc(S(=O)(=O)O)cc(O)c2c1N=Nc1ccc(NC(=O)Nc2ccc(N=Nc3c(N)ccc4cc(S(=O)(=O)O)cc(O)c34)c(S(=O)(=O)O)c2)cc1S(=O)(=O)O` came in with a half-maximal effective concentration (EC50) of 55 µM and an IC50 of over 200 µM.

Take `Cc1ccc(C(=O)Nc2ccc(CP(=O)(O)O)cc2CP(=O)(O)O)cc1NC(=O)c1cccc(N)c1`: the EC50 was over 200 µM and the IC50 is over 200 µM. In the case of `CC1C[C@H](C)CC(C(O)CC2CC(=O)N(Cc3ccccc3)C(=O)C2)C1O` (stereo partly drawn), the EC50 was over 200 µM and the IC50 is over 200 µM. As for `COC(CCC(C)C1OC23CC(OC(=O)CC(C(C)O)OC(=O)CC(O)(O2)C(C)CC3(C)C)C1C)c1cccc(O)c1` (stereo not drawn), the result was active. For `CN(C)/C=C1\CCc2ccc([N+](=O)[O-])cc2C1=O`, the EC50 is over 200 µM and the IC50 was determined as 93.3 µM.

Consider `Cc1cc(=O)oc2c(C)c3oc(CBr)c(Br)c3cc12`, for which the EC50 was over 200 µM and the half-maximal inhibitory concentration (IC50) is 2.24 µM.

For the compound `CCOC(=O)/C(=C\c1ccc(Cl)cc1)C(C)=O`, the EC50 was over 372 µM and the IC50 was 64.6 µM. On to `CCCCCCCCCCCCCCCC(=O)Nc1ccn(C2CCC(COP(=O)(O)OCC3OC(n4cc(C)c(=O)[nH]c4=O)CC3F)O2)c(=O)n1` (stereo not drawn), for which the EC50 was 0.0132 µM and the IC50 is 0.2 µM.

For the compound `COc1cc(O)c(C(=O)CC(C)=O)c(OC)c1`, the EC50 is over 398 µM and the half-maximal inhibitory concentration (IC50) was 174 µM. For `N#CC(NNC(=O)c1ccccc1O)c1ccccc1` (stereo not drawn), in that order: over 9.33 µM and 0.339 µM. Turning to `Cc1ccc2nc3cc(C)c(=O)cc-3sc2c1`, the EC50 is over 56.2 µM and the half-inhibitory concentration (IC50) came to 37.2 µM.

Take `O=C1Nc2ccccc2C12OCCS2` (stereo not drawn): the result was inactive.

As to `Cc1c(-c2ccccc2)c(-c2ccc(OCCN(C)C)cc2)n2ccccc12`, the EC50 is over 200 µM and the concentration for half-maximal inhibition (IC50) was 10 µM.

Take `CCCCC(C(=O)C(=O)NC1C2CC3CC(C2)CC1C3)C(=O)C(C)C` (stereo not drawn): the EC50 is over 74.1 µM and the IC50 is over 74.1 µM.

Regarding `CC(=O)Oc1ccc[nH]c1=O`, the EC50 was over 200 µM and the IC50 stood at 58.9 µM. For `CC(=O)C1(C)CC(C#N)(C#N)C(C#N)=C1N` (stereo not drawn), in that order: over 200 µM and over 200 µM. For `NCCNCCCNC(=O)c1cc(-c2ccccc2)nc2ccccc12` the same measures were over 200 µM and 53.7 µM.

`O=S(=O)(O/C1=C/CCCCCC1)C(F)(F)F`: the EC50 was over 100 µM and the 50% inhibitory concentration (IC50) was over 100 µM. With `O=C(O)C12CC=CCC1(C(=O)O)CC=CC2` (stereo not drawn), the EC50 was over 200 µM and the IC50 was over 200 µM. Turning to `Cc1c(C(=O)CC(=O)C(=O)Nc2cccc(C(F)(F)F)c2)[n+](=O)c2ccccc2n1[O-]`, the EC50 is over 40.7 µM and the IC50 is 3.55 µM. As for `CCOC(=O)C(C(=O)OCC)=c1sc(=C(C(=O)OCC)C(=O)OCC)s1`, the outcome was inactive.

On to `O=C(CC1(O)C(=O)Nc2c(Cl)cc(Cl)cc21)c1cccc([N+](=O)[O-])c1` (stereo not drawn), for which the EC50 was over 19.1 µM and the 50% inhibitory concentration (IC50) is over 19.1 µM. With `CCOC(=O)C1(C(=O)OCC)OC(=O)NC2=C1CCCC2`, the EC50 is over 832 µM and the 50% inhibitory concentration (IC50) amounted to 145 µM. For `Cc1ccnc(NS(=O)(=O)c2ccc(NC(=O)c3ccccc3SC(=O)CCCC[n+]3ccccc3)cc2)n1` the same measures were 15.1 µM and 102 µM. As for `CC1(C)COC(c2cccc(C(O)c3ccc(Cl)cc3)c2)=N1` (stereo not drawn), the EC50 is over 200 µM and the IC50 was found to be 38.9 µM. Consider `Cn1nc(-c2cccc(-c3nn(C)c(=NCCO)s3)n2)sc1=NCCO`, for which the EC50 is over 200 µM and the IC50 is over 200 µM.

For the compound `CN1C(=O)/C(=C2\SC(=O)N(CNc3ccc(Br)cc3)C2=O)c2ccccc21`, the EC50 is over 200 µM and the IC50 was 15.5 µM. Take `COc1cc2c(cc1O)[C@@]1(Cc3ccc(OC)c(OC)c3)CCC(=O)N1CC2`: the result was inactive. For `CCOC(=O)Cn1c(C)nc2nn(Cc3ccccc3)cc2c1=O`, the EC50 is over 200 µM and the IC50 is over 200 µM. With `Cc1cc(C)c2c(c1)CC1(Cc3c(C)cc(C)cc3C1=O)C2=O` (stereo not drawn), the EC50 was over 100 µM and the IC50 is over 100 µM. On to `Cc1cccc(Cl)c1NC=O`, for which the outcome was inactive. Consider `Cc1nn(C(=O)c2ccncc2)c2c1C(c1ccc([N+](=O)[O-])cc1)SC(N)=N2` (stereo not drawn), for which the EC50 is over 200 µM and the half-inhibitory concentration (IC50) came out at 126 µM. For `CCC1(O)C(=O)OCc2c1cc1n(c2=O)Cc2cc3cc(N)ccc3nc2-1` (stereo not drawn), in that order: over 0.1 µM and 0.0794 µM. For the compound `O=S1c2ccccc2N=C(c2ccc3ccccc3c2)CC1c1ccccc1F` (stereo not drawn), the EC50 is over 18.2 µM and the IC50 is over 18.2 µM.

Regarding `CN(C)Cc1[nH]c(=O)[nH]c(=O)c1O`, the EC50 is over 200 µM and the half-inhibitory concentration (IC50) was found to be 23.4 µM. For `COC(=O)C12CC3CC(CC(C(=O)O)(C3)C1)C2`, in that order: over 759 µM and over 759 µM. For `CC1OC(OCC2OC(Oc3c(-c4ccc(O)cc4)oc4cc(O)cc(O)c4c3=O)C(OC3OC(C)C(O)C(O)C3O)C(O)C2O)C(O)C(O)C1O` (stereo not drawn) the same measures were over 339 µM and over 339 µM.

For the compound `O=c1c2ccccc2nc2sc(/N=C/C=C/c3ccccc3)nn12`, the EC50 was over 200 µM and the IC50 came out at 41.7 µM. As for `C[C@@H]1C[C@H](O)[C@]2(O)O[C@@H]3C[C@@]4(C=O)[C@@H](CC=C5[C@@H]4CC[C@]4(C)[C@@H](C6=CC(=O)OC6)CC[C@]54O)C[C@H]3O[C@@H]2O1`, the EC50 is over 0.1 µM and the half-inhibitory concentration (IC50) is 0.0138 µM. For `NC1=N/N=C(c2ccccc2)\C=C/C(c2ccccc2)=N\1` the same measures were over 19.1 µM and over 19.1 µM.

Regarding `COc1cc(NCCN)c2ncsc2c1`, the EC50 is over 200 µM and the IC50 was 85.1 µM.

With `CCOC(=O)CSC(=O)NCCCl`, the EC50 is over 1100 µM and the 50% inhibitory concentration (IC50) was found to be 537 µM.
